Data as given in US8481524B2, “c-MET protein kinase inhibitors” (Vertex Pharmaceuticals Incorporated, priority 2007, dated 2013).
“Also recorded” adds a separate entry of the source.

Test system: c-Met in Snu5 gastric carcinoma cells
Experiment: Inhibition of c-Met activity in Snu5 gastric carcinoma cells (Snu5-AP1-Luc-Pest luciferase signal)
Format: cell-based, human
Settings: for IC50: Homo sapiens, SNU-5, Snu5-AP1-Luc-Pest cells, 6 hours, Steady Glo luminescence; for activity compared with corresponding analog wherein R5 is hydrogen: Snu5 gastric carcinoma cell assay, comparison of IC50 values
Text: Compounds of the invention were also screened for their ability to inhibit the Luciferase-induced signal in an engineered Snu5 cell line. Snu5 [obtained from American Type Culture Collection (Catalog number CRL-5973)] is a human gastric carcinoma known to overexpress c-Met, which is constitutively active. The cell line was transduced with the retrovirus, pCLPCX, which contains a genetic construct consisting of 6×AP1 promoter response elements and a luciferase gene having a C-terminal PEST sequence (proteolytic signal from mouse ornithine decarboxylase, which reduces the half-life of the luciferase). The constitutively active cMet activates cellular pathways (principally MAP kinase), resulting in AP-1-induced transcription of luciferase-PEST and translation into the final product, the activity of which is quantifiable as a chemiluminescent readout upon the addition of luciferin (Steady-Glo from Promega.). Residual luminescence is strongly correlated to the inhibition of c-Met. A stable cell line was obtained by selecting the new cell line (Snu5-AP1-Luc-Pest) with puromycin. The cells were grown in complete media [Iscove's media (Invitrogen) containing 10% fetal bovine serum (FBS, Hyclone) and penicillin/gentamycin (Invitrogen)]. Compounds of the invention were dissolved in DMSO to make 10 mM initial stock solutions. Serial dilutions in DMSO were then made and transferred to complete medium to make a 10× solution. The Snu5-AP1-Luc-Pest cells were counted and diluted to 200,000-cells/mL solution. The cells (90 μL) were added to each well in a 96-well black with clear bottom plate (Costar). Then 10 μL of the 10× compound solution was added to the cells in triplicate. The plates were incubated in a 37° C./5% CO2 incubator. After 6 hours, 50 μL of the Steady Glo reagent (Promega) was added to each well and placed on a plate shaker for 5 minutes to ensure that the cells were completely lysed. The plate was read on a 1450 Microbeta Liquid Scintillation and Luminescence Counter (Perkin-Elmer). The IC50s were calculated using a 4-parameter fit using the graphing software Prism (GraphPad).

IC50 [nM] | SMILES | activity compared with corresponding analog wherein R5 is hydrogen
100 to 1000 | Cc1ccc(-n2nnnc2-c2cc(-c3cnn([C@@H]4CCNC4)c3)cnc2N)c(F)c1F [Compound 1] | more active
≤ 100 | Cc1ccc(-n2nnnc2-c2cc(-c3cnn(C4CCCNCC4)c3)cnc2N)c(F)c1F (stereo not shown) [Compound 3] | more active
≤ 100 | COc1ccc(-n2nnnc2-c2cc(-c3cnn([C@@H]4CCNC4)c3)cnc2N)c(F)c1F [Compound 4] | more active
100 to 1000 | Cc1ccc(-n2nnnc2-c2cc(-c3cnn([C@H]4CCNC4)c3)cnc2N)c(F)c1F [Compound 7] | more active
≤ 100 | COc1ccc(-n2nnnc2-c2cc(-c3cnn([C@H]4CCCNC4)c3)cnc2N)c(F)c1F [Compound 10] | more active
100 to 1000 | Cc1ccc(-n2nnnc2-c2cc(-c3cnn(C4CCNCC4)c3)cnc2N)c(F)c1F [Compound 11, 3-(1-(2,3-Difluoro-4-methylphenyl)-1H-tetrazol-5-yl)-5-(1-(piperidin-4-yl)-1H-pyrazol-4-yl)pyridin-2-amine] | more active
100 to 1000 | COc1ccc(-n2nnnc2-c2cc(-c3cnn(C4CCNCC4)c3)cnc2N)c(F)c1F [Compound 12, 3-(1-(2,3-difluoro-4-methoxyphenyl)-1H-tetrazol-5-yl)-5-(1-(piperidin-4-yl)-1H-pyrazol-4-yl)pyridin-2-amine] | more active
≤ 100 | Cc1ccc(-n2nnnc2-c2cc(-c3cc4c(s3)CCNCC4)cnc2N)c(F)c1F [Compound 13, 3-(1-(2,3-Difluoro-4-methylphenyl)-1H-tetrazol-5-yl)-5-(5,6,7,8-tetrahydro-4H-thieno[2,3-d]azepin-2-yl)pyridin-2-amine] | more active
≤ 100 | COc1ccc(-n2nnnc2-c2cc(-c3cc4c(s3)CCNCC4C)cnc2N)c(F)c1F (stereo not shown) [Compound 14] | more active
≤ 100 | COc1ccc(-n2nnnc2-c2cc(-c3cn(C4CCNCC4)nc3C)cnc2N)c(F)c1F [Compound 18] | more active
100 to 1000 | COc1ccc(-n2nnnc2-c2cc(-c3cc4c(s3)CNCCC4)cnc2N)c(F)c1F [Compound 20] | –
≤ 100 | Cc1ccc(-n2nnnc2-c2cc(-c3cc4c(s3)CCNC(C)C4)cnc2N)c(F)c1F (stereo not shown) [Compound 28] | more active
≤ 100 | COc1ccc(-n2nnnc2-c2cc(-c3cn(C4CCNCC4)nc3C(F)(F)F)cnc2N)c(F)c1F [Compound 36] | more active
≤ 100 | COc1cc(F)c(-n2nnnc2-c2cc(-c3cnn(C4CCNCC4)c3)cnc2N)c(F)c1 [Compound 37] | –

Second part, the compound before the results:

SMILES | IC50 [nM] | activity compared with corresponding analog wherein R5 is hydrogen
Cc1ccc(-n2nnnc2-c2cc(-c3cnn([C@@H]4CCCNC4)c3)cnc2N)c(F)c1F [Compound 2] | ≤ 100 | more active
Cc1ccc(-n2nnnc2-c2cc(-c3cnn([C@H]4CCCNC4)c3)cnc2N)c(F)c1F [Compound 5] | ≤ 100 | more active
COc1ccc(-n2nnnc2-c2cc(-c3cnn([C@H]4CCNC4)c3)cnc2N)c(F)c1F [Compound 6] | ≤ 100 | more active
COc1ccc(-n2nnnc2-c2cc(-c3cnn([C@@H]4CCCNC4)c3)cnc2N)c(F)c1F [Compound 8, 3-(1-(2,3-Difluoro-4-methoxyphenyl)-1H-tetrazol-5-yl)-5-(1-((R)-piperidin-3-yl)-1H-pyrazol-4-yl)pyridin-2-amine] | ≤ 100 | more active
COc1ccc(-n2nnnc2-c2cc(-c3cnn(C4CCCNCC4)c3)cnc2N)c(F)c1F (stereo not shown) [Compound 9] | 100 to 1000 | –
COc1ccc(-n2nnnc2-c2cc(-c3cc4c(s3)CCNCC4)cnc2N)c(F)c1F [Compound 15] | ≤ 100 | more active
COc1ccc(-n2nnnc2-c2cc(-c3cnn(C4CC5CCC(C4)N5)c3)cnc2N)c(F)c1F (stereo not shown) [Compound 16] | ≤ 100 | more active
COc1ccc(-n2nnnc2-c2cc(-c3cnn(C4CC5CCC(C4)N5)c3)cnc2N)c(F)c1F (stereo not shown) [Compound 17] | – | more active
CCC1Cc2sc(-c3cnc(N)c(-c4nnnn4-c4ccc(OC)c(F)c4F)c3)cc2CCN1 (stereo not shown) [Compound 19] | ≤ 100 | more active
COc1ccc(-n2nnnc2-c2cc(-c3cc4c(s3)CCCNC4)cnc2N)c(F)c1F [Compound 21] | 100 to 1000 | more active
COc1ccc(-n2nnnc2-c2cc(-c3cc(C)c(C4CCNCC4)s3)cnc2N)c(F)c1F [Compound 22, 3-(1-(2,3-Difluoro-4-methoxyphenyl)-1H-tetrazol-5-yl)-5-(4-methyl-5-(piperidin-4-yl)thiophen-2-yl)pyridin-2-amine] | ≤ 100 | more active
CCCOc1ccc(-n2nnnc2-c2cc(-c3cc4c(s3)CCNCC4)cnc2N)c(F)c1F [Compound 23] | ≤ 100 | –
Cc1cc(-c2cnc(N)c(-c3nnnn3-c3ccc(C)c(F)c3F)c2)sc1C1CCNCC1 [Compound 24] | ≤ 100 | more active
CCOc1ccc(-n2nnnc2-c2cc(-c3cnn(C4CCNCC4)c3)cnc2N)c(F)c1F [Compound 25] | ≤ 100 | –
CC(C)Oc1ccc(-n2nnnc2-c2cc(-c3cnn(C4CCNCC4)c3)cnc2N)c(F)c1F [Compound 26] | ≤ 100 | –
COc1ccc(-n2nnnc2-c2cc(-c3cc4c(s3)CCNC(C)C4)cnc2N)c(F)c1F (stereo not shown) [Compound 27] | ≤ 100 | more active
COc1ccc(-n2nnnc2-c2cc(-c3cc4c(s3)CCNCC4(C)C)cnc2N)c(F)c1F [Compound 29] | ≤ 100 | more active
Cc1ccc(-n2nnnc2-c2cc(-c3cc4c(s3)CCNCC4(C)C)cnc2N)c(F)c1F [Compound 30] | ≤ 100 | more active
Cc1cc(C2CCNCC2)sc1-c1cnc(N)c(-c2nnnn2-c2ccc(C)c(F)c2F)c1 [Compound 31] | 100 to 1000 | more active; also recorded: the unsubstituted compound has a lower IC50 value
COc1ccc(-n2nnnc2-c2cc(-c3sc(C4CCNCC4)cc3C)cnc2N)c(F)c1F [Compound 32] | ≤ 100 | more active
CC(C)Oc1ccc(-n2nnnc2-c2cc(-c3cc4c(s3)CCNCC4)cnc2N)c(F)c1F [Compound 33] | ≤ 100 | –
CCCOc1ccc(-n2nnnc2-c2cc(-c3cnn(C4CCNCC4)c3)cnc2N)c(F)c1F [Compound 34] | ≤ 100 | –
COCCOc1ccc(-n2nnnc2-c2cc(-c3cnn(C4CCNCC4)c3)cnc2N)c(F)c1F [Compound 35] | 100 to 1000 | –
